Experimental findings from PubChem BioAssay AID608 (Sanford-Burnham Center for Chemical Genomics, 2007) are described below.

The structures appear in SMILES notation. Calls of active or inactive are those of the source. How the calls were made is not given here. A value given as a limit tells only on which side of the number the result lay.

Sequence of Peptidyl-prolyl cis-trans isomerase FKBP1A (Homo sapiens) (P62942 whole entry, looked up): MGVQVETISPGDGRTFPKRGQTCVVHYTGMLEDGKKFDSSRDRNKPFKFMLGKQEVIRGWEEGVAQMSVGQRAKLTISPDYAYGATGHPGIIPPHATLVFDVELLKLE

This test has as its target Peptidyl-prolyl cis-trans isomerase FKBP1A (Homo sapiens) (UniProt P62942). Description: small-molecule binding to FKBP12 – biophysical, NMR detection (AID 608). Conditions: purified FKBP12.
As a reminder, the Kd is the concentration at which binding is half-saturated. Turning to `O=C(CSc1ccc2ccccc2c1)N1CCOCC1`, the Kd is 0.18 mM.

Regarding `N=c1c2c3c(sc2ncn1N)CCCC3`, the Kd is > 4 mM (inactive).

For the compound `Cc1ccccc1NS(=O)(=O)c1ccc(F)cc1`, the Kd was > 4 mM (inactive).

Turning to `O=[N+]([O-])c1cccc(CN2CCC(O)CC2)c1`, the Kd is > 4 mM (inactive).

As for `Nc1ccc(Oc2ccccc2)nc1`, the Kd was > 4 mM (inactive).

In the case of `Cc1cc(C(F)(F)F)n2nc(C(=O)O)c(Cl)c2n1`, the Kd was > 4 mM (inactive).

Consider `O=C(Nc1ccncc1)c1c(F)cccc1F`, for which the Kd is > 4 mM (inactive).

Take `COc1ccc2c(CC(=O)O)coc2c1`: the Kd is > 4 mM (inactive).

Consider `O=C(O)c1cnn2ccccc12`, for which the Kd was > 4 mM (inactive).

For the compound `NC(=O)c1ccccc1NC(=O)c1cccnc1`, the Kd is > 4 mM (inactive).

On to `CS(=O)(=O)c1ccc2nc(N)sc2c1`, for which the Kd was > 4 mM (inactive).

On to `COC(=O)c1cccc(N)c1`, for which the Kd is > 4 mM (inactive).

Regarding `COC(=O)CSc1nc(N)cc(=O)[nH]1`, the Kd is > 4 mM (inactive).

As to `CC(C)c1ccc(SCC(=O)O)cc1`, the Kd was > 4 mM (inactive).

With `NCC1COc2ccccc2O1` (stereo not drawn), the Kd was > 4 mM (inactive).

On to `CNC(=O)c1cccc(NC(=S)NC)c1`, for which the Kd was > 4 mM (inactive).

Regarding `COC(=O)c1cccs1`, the Kd is > 4 mM (inactive).

Take `c1ccc(SCc2nc(-c3ccccn3)no2)cc1`: the Kd was > 4 mM (inactive).

Turning to `Nc1ccccc1C(=O)N1CCOCC1`, the Kd is > 4 mM (inactive).

For `COc1ccc(C(=O)NCC(=O)O)cc1`, the Kd was > 4 mM (inactive).

Consider `CCCCCC/C=C\CCCCCCCc1cccc(O)c1C(=O)O`, for which the Kd is > 4 mM (inactive).

`CC(NC(=O)c1ccco1)c1ccc2c(c1)OCCO2` (stereo not drawn): the Kd was > 4 mM (inactive).

Regarding `O=c1cc(-c2ccc(O)cc2)oc2cc(O)cc(O)c12`, the Kd was > 4 mM (inactive).

Consider `O=C(O)CC1NCCNC1=O` (stereo not drawn), for which the Kd was > 4 mM (inactive).

Take `COc1ccc2c(c1OC)C(=O)OC2[C@H]1c2c(cc3c(c2OC)OCO3)CCN1C` (stereo partly drawn): the Kd is > 4 mM (inactive).

With `N#CCSc1nc2ccccc2c(=O)n1-c1ccccc1`, the Kd is > 4 mM (inactive).

For `Cc1cc(C)n(-c2nc(N)cc(=O)[nH]2)n1`, the Kd is > 4 mM (inactive).

Regarding `CC(C)(CO)NC(=O)c1ccccc1F`, the Kd was > 4 mM (inactive).

Regarding `Nc1ccc(CN2CCS(=O)(=O)CC2)cc1`, the Kd is > 4 mM (inactive).

Take `O=S(=O)(Nc1cccnc1Cl)c1ccccc1`: the Kd was > 4 mM (inactive).

Take `Oc1cc(O)c2c(c1)O[C@H](c1ccc(O)c(O)c1)[C@H](O)C2`: the Kd is > 4 mM (inactive).

As for `Cc1cc(C)n2nc(C(=O)Nc3cccnc3)nc2n1`, the Kd is > 4 mM (inactive).

With `O=c1c(O)c(-c2ccccc2)oc2cc(O)ccc12`, the Kd was > 4 mM (inactive).

`O=C(Nc1ccc2c(c1)OCO2)c1c(F)cccc1F`: the Kd is > 4 mM (inactive).

Turning to `CSc1nc2[nH]ncc2c(=O)[nH]1`, the Kd was > 4 mM (inactive).

On to `Nc1ccc(S(=O)(=O)Nc2nccs2)cc1`, for which the Kd was > 4 mM (inactive).

With `COC(=O)c1c(OC)cc2c(c1C)Oc1c(Cl)c(O)c(Cl)c(C)c1C(=O)O2`, the Kd was > 4 mM (inactive).

`c1ccc(CCNc2ncnc3nc[nH]c23)cc1`: the Kd is > 4 mM (inactive).

Consider `COC(=O)Nc1nnc(-c2ccncc2)s1`, for which the Kd was > 4 mM (inactive).

As to `Nc1nc2ccccc2n1CCN1CCCC1`, the Kd was > 4 mM (inactive).

On to `O=C(c1ccccc1)N1CCN(c2ccccc2F)CC1`, for which the Kd is > 4 mM (inactive).

Turning to `O=C(c1ccncc1)N1CCN(C(=O)c2ccncc2)CC1`, the Kd was > 4 mM (inactive).

As to `CS(=O)(=O)N1CCN(C(=O)Cc2cccs2)CC1`, the Kd was > 4 mM (inactive).
